In article PMC4281461, “Pharmacokinetic Comparative Study of Gastrodin and Rhynchophylline after Oral Administration of Different Prescriptions of Yizhi Tablets in Rats by an HPLC-ESI/MS Method” (Evidence-based Complementary and Alternative Medicine : eCAM, 2014):
Where two headings read alike, the source gives them in different places.

Tests used:
[1] = Stability of GAS, HBA and RIN spiked into rat plasma (HPLC-MS); format: physicochemical; details: for Stability (RE, %) 20°C/24 h / Stability (RE, %) Freeze-thaw (3 cycles) / Stability (RE, %) −80°C/20 days: rat plasma, n = 3; for stability spiked into rat plasma: room temperature (22–25°C) for 24 h, −80°C for 20 days, three freeze/thaw cycles
Protocol: The stability experiments on GAS, HBA, and RIN were performed at three concentrations of the QC samples, using three replicates at each concentration (10, 50, and 100 μg/mL for GAS and HBA and 1, 5, and 10 μg/mL for RIN). Short-term stability was determined after exposure of the spiked samples at room temperature for 24 h. The freeze/thaw stability was evaluated after three complete freeze/thaw cycles (−80°C) on consecutive days. Long-term stability was assessed after storage of the standard spiked plasma samples at −80°C for 20 days. Postextraction stability was determined after the extracted samples had been stored in the autosampler pending analysis at the temperature of the autoinjector (4°C) for 24 h. The analytes were considered stable in the biological matrix when 85–115% (RE) of the initial concentration was found.

[2] = Plasma pharmacokinetics in rats after oral administration of Yizhi tablets, EPT or EPG (HPLC-ESI/MS); format: in vivo, Sprague-Dawley rats; details: for AUC(0-inf) / CL/F / Cmax / Tmax / MRT last / MRT inf / AUC(0-t): male, Sprague-Dawley; for MRT last: read-out: MRT(0–t) (converted); for MRT inf: read-out: MRT(0–∞) (converted)
Protocol: Male Sprague-Dawley rats (weight: 220 ± 30 g) were purchased from the animal laboratory centre at Tsinghua University (Beijing, China). All animals were maintained in an environmentally controlled room under controlled temperature (22–25°C) and relative humidity (50 ± 5%) on 12 h light/dark cycles (lights on from 08:00 to 20:00). Experiments were conducted in a specific pathogen-free (SPF) grade laboratory, according to the guidelines of the Guiding Principles for the Care and Use of Laboratory Animals approved by the Committee for Animal Experiments at Tsinghua University (Beijing, China). The animals were acclimated for one week before use. Standard diet and water were provided to the rats ad libitum.
Yizhi tablets were prepared by mixing Yizhi tablet powder (9 g) in 10 mL 5% CMC-Na with a magnetic stirring apparatus. The concentration of effective parts of tianma (EPT, total saponins from Gastrodiae) and gouteng (EPG, rhynchophylla alkaloids) was equivalent to that in a Yizhi tablet. The three different suspensions were shacked uniformly before administration.
The rats were randomly assigned to one of three groups (1–3), representing the groups administered with EPT, EPG, and Yizhi, respectively. Each group contained six rats. The rats fasted overnight with free access to water before dose administration. After a single dose was administered by oral gavage, blood samples (0.5 mL) were collected in heparinized tubes via the orbital vein at 0 min, 10 min, 20 min, 30 min, 45 min, 1 h, 2 h, 4 h, 6 h, 8 h, and 12 h. All blood samples were centrifuged at 3000 rpm for 15 min to collect plasma. The plasma samples obtained were stored at −20°C until analysis. Along with the plasma samples, quality control (QC) samples were distributed among calibrators and unknown samples in the analytical run. All of the blank samples used as controls were prepared by the same method as drug-containing samples.
To 200 μL of thawed plasma, 25 μL aqueous ammonia and 800 μL ether were added. The supernatant was separated and dried under nitrogen gas at 37°C after vortexing for 1 min and centrifuging at 10,000 g for 15 min at 4°C. The residues were reconstituted in 50 μL of methanol and centrifuged at 15,000 g for 15 min. A 20 μL aliquot of the supernatant was injected into the HPLC-MS system for analysis of RIN. To the residue, 800 μL methanol was added. The supernatant was separated and evaporated to dryness under nitrogen at room temperature after being vortexed for 3 min and centrifuged at 10,000 g for 15 min. The residue was reconstituted in 50 μL of the initial mobile phase and centrifuged at 15,000 g for 15 min. 20 μL aliquot of the supernatant was injected into the HPLC-MS system for analysis of GAS and HBA.
Yizhi tablets, EPT, and EPG were separately suspended in 0.5% carboxymethylcellulose solution and administered orally to six conscious rats at doses of 9 g/kg for Yizhi tablets, 5.4 g/kg for EPT, and 3.6 g/kg for EPG, respectively. Blood samples were collected from the retroorbital plexus of rats under light anaesthesia with ether. Blood samples were collected in microfuge tubes containing heparin as an anticoagulant at 0 min, 10 min, 20 min, 30 min, 45 min, 1 h, 2 h, 4 h, 6 h, 8 h, and 12 h after treatment. Plasma was harvested by centrifuging blood samples at 3500 ×g for 10 min and stored at −80°C until analysis. The concentrations of GAS, HBA, and RIN in plasma were determined as described above. QC samples were distributed among calibrators and samples in the analytical run to adjust the error.
The pharmacokinetic parameters, such as area under the plasma concentration-time curve (AUC), maximum plasma concentration (C max), corresponding time (T max) and half-life (T 1/2), plasma clearance (CL), mean residence time (MRT), and initial plasma concentration (C 0) for orally administered dose, were performed on each individual set using the software of Kinetica (Version 5.0, Thermo Electron Corp., MA, USA) by the noncompartmental model. […]

[3] = in vivo, rat plasma, oral EPT 5.4 g/kg, n = 6
[4] = in vivo, rat plasma, oral Yizhi tablets 9 g/kg, n = 6
[5] = rat, in vivo, po, 9 g/kg, oral Yizhi tablets 9 g/kg, n = 6
[6] = rat, in vivo, po, 9 g/kg, text value matching the Yizhi tablet group (oral 9 g/kg)
[7] = rat plasma, oral EPT 5.4 g/kg, n = 6
[8] = rat plasma, oral Yizhi tablets 9 g/kg, n = 6
[9] = in vivo, rat plasma, oral EPG 3.6 g/kg, n = 6

| SMILES | Stability (RE, %) 20°C/24 h ([1]; 10 μg/mL) [%] | Stability (RE, %) Freeze-thaw (3 cycles) ([1]; 10 μg/mL) [%] | Stability (RE, %) −80°C/20 days ([1]; 10 μg/mL) [%] | Stability (RE, %) 20°C/24 h ([1]; 50 μg/mL) [%] | Stability (RE, %) Freeze-thaw (3 cycles) ([1]; 50 μg/mL) [%] | Stability (RE, %) −80°C/20 days ([1]; 50 μg/mL) [%] | Stability (RE, %) 20°C/24 h ([1]; 100 μg/mL) [%] | Stability (RE, %) Freeze-thaw (3 cycles) ([1]; 100 μg/mL) [%] | Stability (RE, %) −80°C/20 days ([1]; 100 μg/mL) [%] | stability spiked into rat plasma [1] | AUC(0-inf) [2, 4] [ng·h/mL] | CL/F [2, 4] [mL/min/kg] | Cmax [2, 4] [ng/mL] | Tmax [2, 4] [h] | MRT last [2, 4] [h] | MRT inf [2, 4] [h] | AUC(0-t) [2, 5] [ng·h/mL] | AUC(0-t) [2, 6] [ng·h/mL] | further results |
| --- | --- | --- | --- | --- | --- | --- | --- | --- | --- | --- | --- | --- | --- | --- | --- | --- | --- | --- | --- |
| OCc1ccc(O[C@@H]2O[C@H](CO)[C@@H](O)[C@H](O)[C@H]2O)cc1 [GAS, Gastrodin] | 9.35 | 5.36 | 4.38 | 3.17 | 4.12 | 6.95 | 3.93 | 8.26 | 8.01 | stable | 249000 | 3.5 ± 0.1 | 141000 ± 19000 | 0.75 | 2.69 | 3.29 | 230000 | 230000 | AUC(0-inf) [2, 3]: 367000 ng·h/mL; CL/F [2, 3]: 2.32 ± 0.25 mL/min/kg; Cmax [2, 3]: 188000 ± 19300 ng/mL; Tmax [2, 3]: 0.361 h; MRT last [2, 3]: 2.03 h; MRT inf [2, 3]: 2.21 h; AUC(0-t) ([2]; rat, in vivo, po, 5.4 g/kg, oral EPT 5.4 g/kg, n = 6): 359000 ng·h/mL; MRT change when coadministered with Yizhi tablet ([2]; rat plasma, Yizhi tablet group versus EPT group): 1.32 fold; time of first of two successive maximum plasma concentrations ([2]; rat plasma, oral Yizhi tablets): 45 min; time of second of two successive maximum plasma concentrations ([2]; rat plasma, oral Yizhi tablets): 120 min |
| OCc1ccc(O)cc1 [HBA, p-hydroxybenzyl alcohol] | 4.69 | 2.65 | 4.58 | 2.65 | 4.65 | 5.63 | 3.17 | 7.03 | 7.15 | stable |  |  |  |  |  |  |  |  | AUC(0-inf) [2, 7]: 34700 ng·h/mL; AUC(0-t) [2, 7]: 27600 ng·h/mL; Cmax [2, 7]: 9120 ± 610 ng/mL; Tmax [2, 7]: 1 h; MRT last [2, 7]: 2.57 h; MRT inf [2, 7]: 3.98 h; AUC(0-inf) [2, 8]: 52200 ng·h/mL; AUC(0-t) [2, 8]: 37800 ng·h/mL; Cmax [2, 8]: 10400 ± 3020 ng/mL; Tmax [2, 8]: 0.917 h; MRT last [2, 8]: 4.44 h; MRT inf [2, 8]: 9.22 h; bioavailability in Yizhi tablet group compared with EPT alone ([2]; rat plasma, increased AUC, longer MRT (P < 0.01), higher C max): higher bioavailability |
| CC[C@H]1CN2CC[C@]3(C(=O)Nc4ccccc43)[C@@H]2C[C@@H]1/C(=C\OC)C(=O)OC [RIN, rhynchophylline] | 9.35 | 4.56 | 5.49 |  |  |  |  |  |  | stable | 32000 | 2.18 ± 0.46 | 6500 ± 1440 | 4 | 3.72 | 4.59 | 29700 | 29700 | Stability (RE, %) 20°C/24 h ([1]; 1 μg/mL): 8.63%; Stability (RE, %) Freeze-thaw (3 cycles) ([1]; 1 μg/mL): 7.18%; Stability (RE, %) −80°C/20 days ([1]; 1 μg/mL): 6.88%; Stability (RE, %) 20°C/24 h ([1]; 5 μg/mL): 7.65%; Stability (RE, %) Freeze-thaw (3 cycles) ([1]; 5 μg/mL): 8.08%; Stability (RE, %) −80°C/20 days ([1]; 5 μg/mL): 8.04%; AUC(0-inf) [2, 9]: 43400 ng·h/mL; CL/F [2, 9]: 1.55 ± 0.13 mL/min/kg; Cmax [2, 9]: 6170 ± 380 ng/mL; Tmax [2, 9]: 3.67 h; MRT last [2, 9]: 4.78 h; MRT inf [2, 9]: 5.59 h; AUC(0-t) ([2]; rat, in vivo, po, 3.6 g/kg, oral EPG 3.6 g/kg): 40200 ng·h/mL; AUC(0-t) ([2]; rat, in vivo, po, 3.6 g/kg, oral EPG 3.6 g/kg, n = 6): 40200 ng·h/mL; delay of T max ([2]; rat plasma, Yizhi tablets versus EPG alone): 0.333 h |
